Results on one compound are retold here after patent US20180049996A1, “THERAPEUTIC AGENT FOR CHRONIC RESPIRATORY DISEASE AND COMPOSITION FOR INHIBITING CARDIAC FIBROSIS” (NIPPON HYPOX LABORATORIES INCORPORATED, priority 2015, published 2018).

The subject of assay [1] is Myocardial Disorder Induced by Doxorubicin. As to the kind of experiment: Relative weights of the hearts, myocardial disorder induced by doxorubicin. The format is in vivo, female SD rats. The following applies: Test group 2: doxorubicin 13 mg/kg + HTHQ 50 mg/kg oral. The source says:
Doxorubicin is used to produce disease-model animals of cardiomyopathy. […] The recombinant human erythropoietin (rHuEPO) is mainly used in the treatment of renal anemia etc., and has the effect to protect myocardium. The test group 3 is used to confirm the presence or absence of the inhibitory effect brought about by combining HTHQ and rHuEPO on myocardial disorder. […] Recombinant human erythropoietin was daily administered to the rats in test group 3 starting from 3 days before the administration of doxorubicin by intravenous injection. The number of animals in each group was 16. 8 animals of each group were sacrificed after collecting blood on day 7 and 14 after the administration of doxorubicin, and the autopsy of the hearts, the calculation of the relative weights of the hearts, the histopathologic examination of the hearts and the hematological examination were conducted. Myocardium is hypertrophied by fibrosing and the weight of the myocardium increases, and the relative weight of the heart tends to increase. […] Also, there was no significant difference between the other groups on day 7 and 14 after the administration (p<0.05).

The test system of assay [2] is IL-13. As to the kind of experiment: IL-13 level in BAL fluid (ELISA), ovalbumin asthma model. The format is in vivo, BALB/c female mice. The following applies: HTHQ 20 and 40 mg/kg/day oral; compared to OVA group. The procedure: 6 week old BALB/c female mice were purchased and the mice were divided into 5 groups with 5 animals per group shown in Table 3 below after habituation breeding of about 2 weeks.
The test was conducted on the schedule of sensitization, causing diseases and administration of test materials shown in FIG. 12. “IP” in FIG. 12 refers to ovalbumin sensitization treatment by the intraperitoneal administration of ovalbumin/aluminum hydroxide, and “IH” refers to inhalation exposure treatment of ovalbumin, and “PO” refers to the administration of the test materials. […]
All mice were euthanized by intraperitoneal injection of pentobarbital (Hanrimu pharmaceutical, South Korea) at 50 mg/kg and the bronchi were excised on day 25 of the test. […] After preparing slide samples from 100 μL of BAL cell fluid using Cytospin (4° C., 1000 rpm×5 min), the cell numbers of inflammatory cells (eosinophils, macrophages, lymphocytes and neutrophils) present in the BAL fluid were counted using a Diff-Quik stain kit.
The supernatant of the BAL fluid stored was taken out of the super-cryostat and IL-4, IL-5 and IL-13 levels were measured as the pro-inflammatory cytokine contents in the supernatant of the BAL fluid. A quantitative ELISA kit (a product from R&D systems) and a microplate reader (a product from Bio-Rad Laboratories, Inc.) were used for the measurement and the measurement wavelength was 450 nm.
For orientation: ELISA stands for enzyme-linked immunosorbent assay.

Marks after values point to notes of the source that are not given here.

Take `CCCCCCOc1cc(C)c(O)c(C)c1C` [HTHQ, 2,3,5-trimethylhydroquinone-1-hexyl ether]: the “relative weight of the heart” value in assay [1] (Day 7 after administration, p<0.05 vs Test group 1) is given as 0.4208 ± 0.0409^a %; in assay [1] (Day 14 after administration) it was 0.3658 ± 0.0357%. Moreover, in assay [2], the “IL-13 content in BAL fluid” value is “significantly reduced”.
